Reference: PubChem BioAssay (NCI)
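How tested: cells in 96-well plates exposed to compound for 48 hours at five concentrations. GI50 = concentration required for 50% inhibition of growth. TGI: total growth inhibition.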

Key:
Assay in all cases: DTP human tumour cell line panel, 48 h
[1] = test system: 786-0 renal
[2] = test system: A549 NSCLC
[3] = test system: ACHN renal
[4] = test system: BT-549 breast
[5] = test system: CAKI-1 renal
[6] = test system: CCRF-CEM leukemia
[7] = test system: COLO 205 colon
[8] = test system: DU-145 prostate
[9] = test system: EKVX NSCLC
[10] = test system: HCC-2998 colon
[11] = test system: HCT-116 colon
[12] = test system: HCT-15 colon
[13] = test system: HL-60(TB) leukemia
[14] = test system: HOP-62 NSCLC
[15] = test system: HS 578T breast
[16] = test system: HT29 colon
[17] = test system: IGROV1 ovarian
[18] = test system: K-562 leukemia
[19] = test system: KM12 colon
[20] = test system: LOX IMVI melanoma
[21] = test system: M14 melanoma
[22] = test system: MALME-3M melanoma
[23] = test system: MCF7 breast
[24] = test system: MDA-MB-231 breast
[25] = test system: MDA-MB-435
[26] = test system: MDA-MB-468 breast
[27] = test system: MOLT-4 leukemia
[28] = test system: NCI-H226 lung
[29] = test system: NCI-H23 lung
[30] = test system: NCI-H460 lung
[31] = test system: NCI-H522 lung
[32] = test system: NCI/ADR-RES ovarian
[33] = test system: OVCAR-3 ovarian
[34] = test system: OVCAR-4 ovarian
[35] = test system: OVCAR-5 ovarian
[36] = test system: OVCAR-8 ovarian
[37] = test system: PC-3 prostate
[38] = test system: RPMI-8226 leukemia
[39] = test system: RXF 393 renal
[40] = test system: SF-268 CNS
[41] = test system: SF-295 CNS
[42] = test system: SF-539 CNS
[43] = test system: SK-MEL-2 melanoma
[44] = test system: SK-MEL-28 melanoma
[45] = test system: SK-MEL-5 melanoma
[46] = test system: SK-OV-3 ovarian
[47] = test system: SN12C renal
[48] = test system: SNB-19 CNS
[49] = test system: SNB-75 CNS
[50] = test system: SR leukemia
[51] = test system: SW-620 colon
[52] = test system: T-47D breast
[53] = test system: TK-10 renal
[54] = test system: U251 CNS
[55] = test system: UACC-257 melanoma
[56] = test system: UACC-62 melanoma
[57] = test system: UO-31 renal

N#Cc1cc(-c2ccc3ncnc(N4CCc5cc(F)c(Cl)cc54)c3c2)cnc1N
GI50 [1]: 435 nM
TGI [1]: 21.9 µM
GI50 [2]: 1880 nM
TGI [2]: > 100 µM
GI50 [3]: 850 nM
TGI [3]: > 100 µM
GI50 [4]: 1230 nM
TGI [4]: 32.6 µM
GI50 [5]: 786 nM
TGI [5]: > 100 µM
GI50 [6]: 575 nM
TGI [6]: > 100 µM
GI50 [7]: 1900 nM
TGI [7]: > 100 µM
GI50 [8]: 1490 nM
TGI [8]: > 100 µM
GI50 [9]: 940 nM
TGI [9]: > 100 µM
GI50 [10]: 2070 nM
TGI [10]: > 100 µM
GI50 [11]: 2110 nM
TGI [11]: 10.4 µM
GI50 [12]: 1680 nM
TGI [12]: > 100 µM
GI50 [13]: 422 nM
TGI [13]: > 100 µM
GI50 [14]: 3.75 µM
TGI [14]: > 100 µM
GI50 [15]: 633 nM
TGI [15]: 7.71 µM
GI50 [16]: 2650 nM
TGI [16]: > 100 µM
GI50 [17]: 365 nM
TGI [17]: 3.01 µM
GI50 [18]: 3.23 µM
TGI [18]: > 100 µM
GI50 [19]: 15.9 µM
TGI [19]: > 100 µM
GI50 [20]: 1600 nM
TGI [20]: 16.9 µM
GI50 [21]: 3.09 µM
TGI [21]: > 100 µM
GI50 [22]: 2930 nM
TGI [22]: 45.5 µM
GI50 [23]: 532 nM
TGI [23]: 4.05 µM
GI50 [24]: 2450 nM
TGI [24]: 9.48 µM
GI50 [25]: 4.15 µM
TGI [25]: 29.8 µM
GI50 [26]: 227 nM
TGI [26]: 880 nM
GI50 [27]: 1630 nM
TGI [27]: 11.4 µM
GI50 [28]: 1380 nM
TGI [28]: > 100 µM
GI50 [29]: 3.34 µM
TGI [29]: > 100 µM
GI50 [30]: 1900 nM
TGI [30]: 6.52 µM
GI50 [31]: 3.34 µM
TGI [31]: > 100 µM
GI50 [32]: 2410 nM
TGI [32]: > 100 µM
GI50 [33]: 1470 nM
TGI [33]: > 100 µM
GI50 [34]: 3.7 µM
TGI [34]: > 100 µM
GI50 [35]: 5.21 µM
TGI [35]: > 100 µM
GI50 [36]: 2340 nM
TGI [36]: > 100 µM
GI50 [37]: 1750 nM
TGI [37]: > 100 µM
GI50 [38]: 992 nM
TGI [38]: > 100 µM
GI50 [39]: 316 nM
TGI [39]: 2940 nM
GI50 [40]: 2310 nM
TGI [40]: > 100 µM
GI50 [41]: 3.23 µM
TGI [41]: > 100 µM
GI50 [42]: 1870 nM
TGI [42]: > 100 µM
GI50 [43]: 17.1 µM
TGI [43]: > 100 µM
GI50 [44]: 2810 nM
TGI [44]: > 100 µM
GI50 [45]: 3.03 µM
TGI [45]: > 100 µM
GI50 [46]: 2920 nM
TGI [46]: > 100 µM
GI50 [47]: 1050 nM
TGI [47]: 11.2 µM
GI50 [48]: 3.41 µM
TGI [48]: > 100 µM
GI50 [49]: 838 nM
TGI [49]: > 100 µM
GI50 [50]: 1010 nM
TGI [50]: 10 µM
GI50 [51]: 2620 nM
TGI [51]: > 100 µM
GI50 [52]: 1490 nM
TGI [52]: > 100 µM
GI50 [53]: 993 nM
TGI [53]: > 100 µM
GI50 [54]: 2710 nM
TGI [54]: > 100 µM
GI50 [55]: 4.45 µM
TGI [55]: > 100 µM
GI50 [56]: 3.39 µM
TGI [56]: > 100 µM
GI50 [57]: 278 nM
TGI [57]: > 100 µM
